The values that follow are results of earlier work, collected in patent US9945862B2, “Biomarkers for predicting and assessing responsiveness of thyroid and kidney cancer subjects to lenvatinib compounds” (Eisai R&D Management Co., Ltd., priority 2011, dated 2018).

This series concerns xenograft models of various tumors. As to conditions: by inhibiting angiogenesis; cited from earlier work.

`COc1cc2nccc(Oc3ccc(NC(=O)NC4CC4)c(Cl)c3)c2cc1C(N)=O` [Lenvatinib, 4-(3-chloro-4(cyclopropylaminocarbonyl)aminophenoxy)-7-methoxy-6-quinolinecarboxamide]: the Anti-tumor effect result is recorded as “potent anti-tumor effects”.
